Columns and labels:
Type in all cases: biochemical
[1] = biological target: T1, G96V-Aurora-B^60-361/INCENP^790-847 (Xenopus laevis, UniProt Q6DE08, G96V); assay: radioactive kinase filterbinding assay, IC50 determination; details: G96V enzyme complex at 5 nM; 100 µM ATP, 10 µM substrate peptide; spread printed ±13 nM
T1 construct: GST (N, cleaved yes); made in house; host or cells: E. coli BL21(DE3) with pUBS520 helper plasmid
Experimental: (§1) The ATP-KM value for the G96V mutant (83 µM) is similar to the wt enzyme (61 µM). The kinase assays are run in the presence of 100 µM ATP using 10 µM of a substrate peptide (see Materials and Methods).
(§2) Hesperadin is a potent inhibitor of human Aurora-B (Hauf, 2003). To determine whether Hesperadin inhibits also xAurora-B /INCENP complexes, a kinase filterbinding assay is employed for IC50-determinations. Both, the G96V and the wt enzyme complex are used at 5 nM concentration in the assays.
(§3) Purified xAurora-B/INCENP is snap frozen and stored for further use at -80°C in desalting buffer (50 mM Tris/Cl pH 8.0, 150mM NaCl, 0.1mM EDTA, 0.03% Brij-35, 10% glycerol, 1mM DTT). xAurora-B/INCENP is incubated in the presence or absence of a test compound dilutions in DMSO prior to addition of substrate peptide and P33-γ-ATP. Samples without a test compound or without substrate peptide are used as high or low-controls, respectively. IC50 values are determined using Graph Pad Prism software.
(§4) For the filter-binding kinase assay (reaction volume 50 ul /well), 96-well PP-Microplates (Greiner, 655 201) are used. To 10µl compound in 25% DMSO are added 30µl PROTEIN-MIX (166 µM ATP,1x kinase buffer [50mM Tris/Cl pH7.5,25mM MgC12, 25mM NaCl], 10-20 ng xAurora-B/INCENP) followed by an 15 min incubation at room temperature (agitating, 350rpm). […]

[2] = biological target: T2, wt-Aurora-B^60-361/INCENP^790-847 (Xenopus laevis, UniProt Q6DE08); assay: as above; details: wt enzyme complex at 5 nM; 100 µM ATP, 10 µM substrate peptide; spread printed ± 2 nM
T2 construct: GST (N, cleaved yes); made in house; host or cells: E. coli BL21(DE3) with pUBS520 helper plasmid
T2 sequence (Q6DE08 60-361): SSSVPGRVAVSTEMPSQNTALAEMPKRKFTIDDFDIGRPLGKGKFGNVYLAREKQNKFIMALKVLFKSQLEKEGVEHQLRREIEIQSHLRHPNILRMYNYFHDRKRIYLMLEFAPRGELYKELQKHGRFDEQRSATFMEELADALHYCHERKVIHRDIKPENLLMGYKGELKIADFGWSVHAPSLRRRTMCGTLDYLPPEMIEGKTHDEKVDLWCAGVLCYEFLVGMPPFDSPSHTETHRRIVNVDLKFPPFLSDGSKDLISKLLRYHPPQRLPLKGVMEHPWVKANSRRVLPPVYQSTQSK
T2 sequence (O13024 790-847 partner limits assumed): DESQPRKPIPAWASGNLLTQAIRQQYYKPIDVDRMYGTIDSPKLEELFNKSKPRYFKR
Experimental: as §1, §2, §3, §4

monomeric human Aurora-B = monomeric human Aurora-B (Homo sapiens, UniProt Q96GD4); assay: kinase assay on monomeric human Aurora-B; details: assay conditions which allow similar signal/noise ratios
Sequence of monomeric human Aurora-B (Q96GD4 whole entry): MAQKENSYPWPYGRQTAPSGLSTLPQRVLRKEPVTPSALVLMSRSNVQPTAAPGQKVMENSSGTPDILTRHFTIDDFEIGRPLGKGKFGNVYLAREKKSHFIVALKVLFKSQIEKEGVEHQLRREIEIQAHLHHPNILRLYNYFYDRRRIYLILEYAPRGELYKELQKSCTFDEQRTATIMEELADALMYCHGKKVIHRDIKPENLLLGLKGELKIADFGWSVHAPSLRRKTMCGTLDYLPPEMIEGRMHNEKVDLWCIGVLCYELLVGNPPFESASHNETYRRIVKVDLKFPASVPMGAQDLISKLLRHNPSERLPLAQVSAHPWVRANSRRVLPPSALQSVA

T1 sequence (Q6DE08 60-361 G96V): as the sequence (Q6DE08 60-361) above, with G37V counted along it
T1 sequence (O13024 790-847 partner limits assumed): as the sequence (O13024 790-847 partner limits assumed) above

CCS(=O)(=O)Nc1ccc2c(c1)/C(=C(/Nc1ccc(CN3CCCCC3)cc1)c1ccccc1)C(=O)N2 [Hesperadin]
IC50 [1]: 25 nM
IC50 [2]: 7 nM
IC50 (monomeric human Aurora-B): 44 nM

From patent publication EP1715036A1, “Crystal structure of an Aurora-B/INCENP complex” (Boehringer Ingelheim International GmbH, priority 2005, dated 2006)
